Laboratory results: patent US12031173B2, “Methods of producing polyol lipids” (THE REGENTS OF THE UNIVERSITY OF CALIFORNIA, priority 2016, dated 2024)

Test: Surface tension of aqueous PEFA solutions, Wilhelmy plate method
Type: physicochemical
Settings: aqueous solution
Protocol: Surface Tension: Surface tensions were measured, using Wilhelmy plate method (Digital Tensiometer K10ST, KRÜSS) for different concentrations of PEFA in aqueous solution. The stabilization time was from 30 minutes in higher concentration to as long as 2 hours in lower concentration (below 2.5 mg/L). The final data was recorded when the measured surface tension became stable.

In the case of `CC(=O)OC[C@H]1O[C@H]2O[C@@H](C)CCCCCC/C=C\CCCCCCCC(=O)O[C@H]3[C@H](O)[C@@H](O)[C@H](O[C@@H]2[C@@H](O)[C@@H]1O)O[C@@H]3COC(C)=O` [Sophorolipid, 1′,4″-Sophorolactone 6′,6″-diacetate], the “Average area occupied by each molecule” value is reported as 54.7 Å^2/molecule, the Surface excess concentration is reported as 2.93 × 10^−6 mol/m^2 and the “Critical Micelle Concentration” value (Wilhelmy plate) is reported as 15.2 mg/L. The Minimum surface tension (Wilhelmy plate) was 36.8 mN/m and the “Slope of linear part for surface tension line” value (Wilhelmy plate) was −11.14 mN/m.
